Laboratory results published in US11534457B2, “Use of dextran sulfate” (priority 2017, dated 2022).

System: severe traumatic brain injury (sTBI)
Assay: sTBI in rats, brain gene expression arrays and pathway analysis (Example 9)
Format: in vivo, Male Wistar rats
Set-up: key to z score, canonical pathway Dendritic Cell Maturation / z score, canonical pathway Adrenomedullin Signaling pathway / z score, canonical pathway Endothelin-1 Signaling / effect on canonical pathway Adrenomedullin Signaling pathway / effect on canonical pathway Endothelin-1 Signaling / effect on canonical pathway Dendritic Cell Maturation / Ingenuity canonical pathway Adrenomedullin signaling pathway, z score / Ingenuity canonical pathway FLT3 Signaling in Hematopoietic Progenitor Cells, z score / Ingenuity canonical pathway Opioid Signaling Pathway, z score / Ingenuity canonical pathway VDR/RXR Activation, z score / Ingenuity canonical pathway Neuropathic Pain Signaling In Dorsal Horn Neurons, z score / Ingenuity canonical pathway STAT3 Pathway, z score / Ingenuity canonical pathway IL-1 Signaling, z score / Ingenuity canonical pathway IL-6 Signaling, z score / Ingenuity canonical pathway NF-κB Signaling, z score / Ingenuity canonical pathway Role of NFAT in Cardiac Hypertrophy, z score / Ingenuity canonical pathway PPARα/RXRα Activation, z score: *: ambiguous effect
Experimental: The experimental protocol used in this study was approved by the Ethical Committee of the Catholic University of Rome, according to international standards and guidelines for animal care. Male Wistar rats of 300-350 g body weight were fed with standard laboratory diet and water ad libitum in a controlled environment. As the anesthetic mixture, the animals received 35 mg/kg b.w. ketamine and 0.25 mg/kg body weight midazolam by i.p. injection. Severe traumatic brain injury (sTBI) was induced by dropping a 450 g weight from 2 m height on to the rat head that had been protected by a metal disk previously fixed on the skull, according to the “weight drop” impact acceleration model (Marmarou et al., A new model of diffuse brain injury in rats. Part I: Pathophysiology and biomechanics. J Neurosurg. 1994; 80: 291-300). […] At the end of each period of treatment, rats were anesthetized again and then immediately sacrificed.
LMW-DS (Tikomed AB) was provided at a stock concentration of 20 mg/ml and was kept in a temperature-monitored refrigerator at 4° C. LMW-DS aliquots were diluted to the appropriate dosing concentration in sterile saline prior to delivery of a single subcutaneous injection.
Three doses of LMW-DS were administered subcutaneously 30 minutes post-TBI. The animals were sacrificed at 2 days post-TBI. The animals were divided into the following subgroups:
Three doses of LMW-DS were administered subcutaneously 30 minutes post-TBI. The animals were sacrificed at 7 days post-TBI. The animals were divided into the following subgroups:
An in vivo craniectomy was performed on all animals during anesthesia. After carefully removing the rat's skull, the brain was exposed and removed with a surgical spatula and quickly dropped in RNALater and preserved at 4° C. for further processing.
RNA extraction and array processing was carried out by SourceBioscience. The arrays used were the Agilent Rat expression arrays.
Statistical analysis was carried out using the Metaboanalyst software package. Gene expression changes of 10% with a p<0.05 were regarded as significant.
Pathway analysis of the differentially regulated genes was carried out using the Ingenuity pathway analysis package. The analysis was performed with special reference to pathways and molecular processes and diseases associated with neurodegenerative disease, including dementia, Alzheimer's disease, ALS, TBI and stroke, and with scarring and fibrosis, including glaucoma and normal pressure hydrocephalus (NPH) after subarachnoid haemorrhage.

[1] = 3 repeated doses of 15 mg/kg, 7 days
[2] = 2 days after TBI, TBI + 1 mg/kg LMW-DS
[3] = 2 days after TBI, TBI + 1 mg/kg LMW-DS, relative to control

With “low molecular weight dextran sulfate [LMW-DS]” the “genes with altered TBI-specific expression” value (1 mg/kg s.c. 30 min after injury, 2 days) was 372 genes, the “genes with altered TBI-specific expression” value (1 mg/kg s.c. 30 min after injury, 7 days) was 3602 genes and the “TBI-deregulated genes remaining deregulated relative to healthy controls (of 221)” value (1 mg/kg, 2 days) was 22 genes. For the same substance, the “TBI-deregulated genes remaining deregulated, percent” value (1 mg/kg, 2 days) was 10%, the “genes differing from healthy controls” value (1 mg/kg, 2 days) was 209 genes and the “TBI-deregulated genes remaining deregulated relative to healthy controls (of 2741)” value (1 mg/kg, 7 days) was 124 genes. The “TBI-deregulated genes remaining deregulated, percent” value (1 mg/kg, 7 days) was 4.5%, the “genes differing from healthy controls” value (1 mg/kg, 7 days) was 282 genes and the “genes with altered TBI-specific expression” value (5 mg/kg s.c. 30 min after TBI, 2 days) was 702 genes. The “genes with altered TBI-specific expression” value (5 mg/kg s.c. 30 min after TBI, 7 days) was 3852 genes, the “TBI-deregulated genes remaining deregulated relative to healthy controls (of 221)” value (5 mg/kg, 2 days) was 51 genes and the “TBI-deregulated genes remaining deregulated, percent” value (5 mg/kg, 2 days) was 23%. The “genes differing from healthy controls” value (5 mg/kg, 2 days) was 258 genes, the “TBI-deregulated genes remaining deregulated relative to healthy controls (of 2741)” value (5 mg/kg, 7 days) was 169 genes and the “TBI-deregulated genes remaining deregulated, percent” value (5 mg/kg, 7 days) was 6.1%. For the same substance, the “genes differing from healthy controls” value (5 mg/kg, 7 days) was 398 genes, the “genes with altered TBI-specific expression” value (15 mg/kg s.c. 30 min after TBI, 2 days) was 247 genes and the “genes with altered TBI-specific expression” value (15 mg/kg s.c. 30 min after TBI, 7 days) was 3901 genes. The “TBI-deregulated genes remaining deregulated relative to healthy controls (of 221)” value (15 mg/kg, 2 days) was 19 genes, the “TBI-deregulated genes remaining deregulated, percent” value (15 mg/kg, 2 days) was 8.5% and the “genes differing from healthy controls” value (15 mg/kg, 2 days) was 47 genes. The “TBI-deregulated genes remaining deregulated relative to healthy controls (of 2741)” value (15 mg/kg, 7 days) was 85 genes, the “TBI-deregulated genes remaining deregulated, percent” value (15 mg/kg, 7 days) was 3.1% and the “genes differing from healthy controls” value (15 mg/kg, 7 days) was 158 genes. The “TBI-deregulated genes remaining deregulated relative to healthy controls (of 2741)” value [1] was 116 genes, the “TBI-deregulated genes remaining deregulated, percent” value [1] was 4.25% and the “genes differing from healthy controls” value [1] was 234 genes. For the same substance, the “effect on canonical pathway Adrenomedullin Signaling pathway” value [2] was “*”, the “effect on canonical pathway Dendritic Cell Maturation” value [2] was “*” and the “effect on canonical pathway Endothelin-1 Signaling” value [2] was “*”. For the same substance, the “effect on canonical pathway IL-1 Signaling” value [2] was “Inhibited”, the “effect on canonical pathway Osteoarthritis Pathway” value [2] was “Inhibited” and the “effect on canonical pathway Role of NFAT in Regulation of the Immune Response” value [2] was “Activated”. For the same substance, the “z score, Abdominal cancer” value [2] was −1.538, the “z score, Abdominal carcinoma” value [2] was −1.715 and the “z score, Abdominal neoplasm” value [2] was −0.154. For the same substance, the “z score, Activation of blood cells” value [2] was 0.086, the “z score, Activation of cells” value [2] was 0.836 and the “z score, Activation of leukocytes” value [2] was 0.086. For the same substance, the “z score, Activation of lymphocytes” value [2] was −1.158, the “z score, Adhesion of tumor cell lines” value [2] was 2.074 and the “z score, Apoptosis” value [2] was −0.337. The “z score, Apoptosis of muscle cells” value [2] was 0.041, the “z score, Behavior” value [2] was 1.334 and the “z score, Binding of tumor cell lines” value [2] was 2.397. For the same substance, the “z score, Carcinoma” value [2] was −0.127, the “z score, Cell death” value [2] was −0.793 and the “z score, Cell death of blood cells” value [2] was 1.082. For the same substance, the “z score, Cell death of immune cells” value [2] was 1.001, the “z score, Cell movement” value [2] was 1.948 and the “z score, Cell movement of muscle cells” value [2] was −0.26. The “z score, Cell movement of vascular smooth muscle cells” value [2] was −0.588, the “z score, Cell proliferation of T lymphocytes” value [2] was −1.097 and the “z score, Cellular homeostasis” value [2] was 0.19. The “z score, Concentration of prostaglandin” value [2] was −0.911, the “z score, Development of connective tissue cells” value [2] was −0.332 and the “z score, Differentiation of bone cells” value [2] was −0.341. The “z score, Differentiation of connective tissue cells” value [2] was 0.73, the “z score, Differentiation of hematopoietic progenitor cells” value [2] was 0.487 and the “z score, Differentiation of osteoclasts” value [2] was −0.223. For the same substance, the “z score, Digestive organ tumor” value [2] was −0.604, the “z score, Experimentally-induced arthritis” value [2] was −0.816 and the “z score, Extracranial solid tumor” value [2] was 0.056. For the same substance, the “z score, Genital tumor” value [2] was 0.13, the “z score, Incidence of tumor” value [2] was −1.131 and the “z score, Inflammation of absolute anatomical region” value [2] was −1.359. For the same substance, the “z score, Inflammation of body cavity” value [2] was −1.757, the “z score, Inflammation of joint” value [2] was −0.053 and the “z score, Inflammation of organ” value [2] was −1.295. The “z score, Inflammatory response” value [2] was 1.159, the “z score, Interaction of mononuclear leukocytes” value [2] was 1.626 and the “z score, Leukocyte migration” value [2] was 1.296. For the same substance, the “z score, Leukopoiesis” value [2] was 1.185, the “z score, Locomotion” value [2] was −0.039 and the “z score, Lymphopoiesis” value [2] was 0.583. For the same substance, the “z score, Malignant solid tumor” value [2] was −0.562, the “z score, Migration of cells” value [2] was 2.093 and the “z score, Necrosis” value [2] was −0.361. The “z score, Non-hematologic malignant neoplasm” value [2] was −0.243, the “z score, Pelvic tumor” value [2] was −0.651 and the “z score, Proliferation of blood cells” value [2] was −1.083. For the same substance, the “z score, Proliferation of lymphatic system cells” value [2] was −1.112, the “z score, Proliferation of lymphocytes” value [2] was −0.852 and the “z score, Quantity of blood cells” value [2] was −1.479. The “z score, Quantity of bone” value [2] was −1.985, the “z score, Quantity of cells” value [2] was −0.765 and the “z score, Quantity of connective tissue cells” value [2] was 0.637. For the same substance, the “z score, Quantity of leukocytes” value [2] was −1.163, the “z score, Quantity of lymphatic system cells” value [2] was −0.701 and the “z score, Quantity of phagocytes” value [2] was −2.061. The “z score, Rheumatic Disease” value [2] was −0.053, the “z score, Size of body” value [2] was −4.771 and the “z score, Solid tumor” value [2] was −0.186. For the same substance, the “z score, Survival of organism” value [2] was −0.095, the “z score, Synthesis of hormone” value [2] was 0.977 and the “z score, Thrombus” value [2] was 1. For the same substance, the “z score, Transcription of RNA” value [2] was −2.488, the “z score, Transport of molecule” value [2] was 2.421 and the “z score, canonical pathway Adrenomedullin Signaling pathway” value [3] was “*”. The “z score, canonical pathway Dendritic Cell Maturation” value [3] was “*”, the “z score, canonical pathway Endothelin-1 Signaling” value [3] was “*” and the “z score, canonical pathway IL-1 Signaling” value [3] was −1. The “z score, canonical pathway Osteoarthritis Pathway” value [3] was −1.342 and the “z score, canonical pathway Role of NFAT in Regulation of the Immune Response” value [3] was 0.378.
